Among the data in PubChem BioAssay AID256 (DTP/NCI, 2004) are T/C values, retold here.

Molecules are shown by their SMILES. “And” between values parts separate entries of the source, which are not always exact repeats. Equal entries are not always repeated. Toxic doses and inconclusive results are not listed.

The experiment deals with CD2F1 mice, L1210 leukemia ip, survival T/C. The experiment can be described thus: NCI In Vivo Anticancer Drug Screen. Data for tumor model L1210 Leukemia (intraperitoneal) in CD2F1 (CDF1) mice. Particulars: higher = longer survival. A digest of the protocol: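 Tumor-bearing mice (transplanted tumor) were split into treated and vehicle control groups, and the measured endpoint of each treated group was divided by that of its vehicle controls.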

[1] abbreviates: endpoint: mean survival time, dose: 50.0 mg/kg/injection, schedule: Q01DX009 (ip), vehicle: saline with Tween-80.
[2] abbreviates: endpoint: mean survival time, dose: 100.0 mg/kg/injection, schedule: Q01DX009 (ip), vehicle: saline with Tween-80.
[3] abbreviates: endpoint: mean survival time, dose: 200.0 mg/kg/injection, schedule: Q01DX009 (ip), vehicle: saline with Tween-80.
[4] abbreviates: endpoint: mean survival time, dose: 25.0 mg/kg/injection, schedule: Q01DX009 (ip), vehicle: saline with Tween-80.
Where [5] appears, read: endpoint: mean survival time, dose: 100.0 mg/kg/injection, schedule: Q04DX003 (ip), vehicle: saline with Tween-80.
The mark [6] stands for this setting: endpoint: mean survival time, dose: 200.0 mg/kg/injection, schedule: Q04DX003 (ip), vehicle: saline with Tween-80.
[7] abbreviates: endpoint: mean survival time, dose: 400.0 mg/kg/injection, schedule: Q04DX003 (ip), vehicle: saline with Tween-80.
[8] abbreviates: endpoint: mean survival time, dose: 100.0 mg/kg/injection, schedule: Q01DX001 (ip), vehicle: saline.
Setting [9] is: endpoint: mean survival time, dose: 200.0 mg/kg/injection, schedule: Q01DX001 (ip), vehicle: saline.
Where [10] appears, read: endpoint: mean survival time, dose: 3.12 mg/kg/injection, schedule: Q01DX009 (ip), vehicle: saline with Tween-80.
Where [11] appears, read: endpoint: mean survival time, dose: 3.13 mg/kg/injection, schedule: Q01DX009 (ip), vehicle: saline with Tween-80.
Where [12] appears, read: endpoint: mean survival time, dose: 6.25 mg/kg/injection, schedule: Q01DX009 (ip), vehicle: saline with Tween-80.
Where [13] appears, read: endpoint: mean survival time, dose: 12.5 mg/kg/injection, schedule: Q01DX009 (ip), vehicle: saline with Tween-80.

On to `C/C=C\c1ccc(OCCOC(=O)Nc2ccc(Cl)cc2C)c(OC)c1`, for which the T/C is, setting by setting: under setting [1], 87 % of control; under setting [2], 92 % of control; under setting [3], 100 % of control.
In the case of `O=C1C2=Cc3ccccc3CN2Cc2ccccc21`, the T/C (endpoint: mean survival time, dose: 75.0 mg/kg/injection, schedule: Q01DX001 (ip), vehicle: other) was 98 % of control and the T/C (endpoint: mean survival time, dose: 150.0 mg/kg/injection, schedule: Q01DX001 (ip), vehicle: other) was 101 % of control.
Take `Nc1ncnc2c1ncn2CCNC(=S)Nc1ccccc1`: the T/C runs as follows: (endpoint: mean survival time, dose: 6.25 mg/kg/injection, schedule: Q01DX005 (ip), vehicle: other) 88 % of control; (endpoint: mean survival time, dose: 12.5 mg/kg/injection, schedule: Q01DX005 (ip), vehicle: other) 92 % of control; (endpoint: mean survival time, dose: 25.0 mg/kg/injection, schedule: Q01DX005 (ip), vehicle: other) 88 % of control; (endpoint: mean survival time, dose: 50.0 mg/kg/injection, schedule: Q01DX005 (ip), vehicle: other) 92 % of control; (endpoint: mean survival time, dose: 100.0 mg/kg/injection, schedule: Q01DX005 (ip), vehicle: other) 92 % of control.
For the compound `CC1(C(=O)O)CCOC1=O` (stereo not drawn), the T/C was 102 % of control (endpoint: mean survival time, dose: 100.0 mg/kg/injection, schedule: Q04DX002 (ip), vehicle: saline) and 107 % of control (endpoint: mean survival time, dose: 200.0 mg/kg/injection, schedule: Q04DX002 (ip), vehicle: saline).
Consider `c1ccc2c(c1)OP(OP1Oc3ccccc3O1)O2`, for which the T/C is, setting by setting: under setting [4], 98 % of control; under setting [1], 98 % of control; under setting [2], 107 % of control; (endpoint: mean survival time, dose: 100.0 mg/kg/injection, schedule: Q04DX003 (ip), vehicle: acetone) 103 % of control.
As for `COC(/C=C\C(OC)OC)OC`, the T/C is 101 % of control (endpoint: mean survival time, dose: 12.5 mg/kg/injection, schedule: Q01DX009 (ip), vehicle: saline) and 96 % of control (endpoint: mean survival time, dose: 25.0 mg/kg/injection, schedule: Q01DX009 (ip), vehicle: saline).
With `N#Cc1ccccc1C#N`, under “endpoint: mean survival time, dose: 25.0 mg/kg/injection, schedule: Q04DX003 (ip), vehicle: saline with Tween-80”, the T/C was 97 % of control.
As to `CCOCC(C(=O)OCC)C(=O)OCC`, the T/C by setting is: under setting [5], 104 % of control; under setting [6], 102 % of control; under setting [7], 104 % of control.
With `Cc1cc([NH-])c([NH-])cc1C.[Cl][Pt+2][Cl]`, the T/C reads like this: (endpoint: mean survival time, dose: 2.5 mg/kg/injection, schedule: Q01DX009 (ip), vehicle: saline with Tween-80) 120 % of control and 123 % of control; (endpoint: mean survival time, dose: 10.0 mg/kg/injection, schedule: Q01DX009 (ip), vehicle: saline with Tween-80) 150 % of control and 168 % of control; (endpoint: mean survival time, dose: 10.0 mg/kg/injection, schedule: Q04DX003 (ip), vehicle: water) 121 % of control; (endpoint: mean survival time, dose: 16.0 mg/kg/injection, schedule: Q04DX003 (ip), vehicle: water) 116 % of control; (endpoint: mean survival time, dose: 24.0 mg/kg/injection, schedule: Q04DX003 (ip), vehicle: water) 112 % of control.
As to `O=C1c2ccccc2-c2ccc3c4ccc5c6c(ccc(c7ccc1c2c73)c64)C(=O)c1ccccc1-5`, the T/C was 89 % of control under setting [2]; 90 % of control under setting [5]; 89 % of control under setting [3]; 87 % of control under setting [6]; 93 % of control (endpoint: mean survival time, dose: 400.0 mg/kg/injection, schedule: Q01DX009 (ip), vehicle: saline with Tween-80); 96 % of control under setting [7].
On to `OCC1OC(n2cnc3c2NC=N[C@@H]3CO)C(O)C1O` (stereo partly drawn), for which the T/C reads like this: (endpoint: mean survival time, dose: 12.5 mg/kg/injection, schedule: Q01DX005 (ip), vehicle: water) 100 % of control; (endpoint: mean survival time, dose: 25.0 mg/kg/injection, schedule: Q01DX005 (ip), vehicle: water) 100 % of control; (endpoint: mean survival time, dose: 50.0 mg/kg/injection, schedule: Q01DX005 (ip), vehicle: water) 104 % of control; (endpoint: mean survival time, dose: 100.0 mg/kg/injection, schedule: Q01DX005 (ip), vehicle: water) 109 % of control; (endpoint: mean survival time, dose: 200.0 mg/kg/injection, schedule: Q01DX005 (ip), vehicle: water) 111 % of control.
Consider `O=CNc1ccccc1OCc1ccccc1`, for which the T/C was 100 % of control under setting [8]; 97 % of control under setting [9]; 103 % of control (endpoint: mean survival time, dose: 400.0 mg/kg/injection, schedule: Q01DX001 (ip), vehicle: saline).
Take `Nc1nc(N)c2c(Cl)c(CNc3ccc(Cl)c(Cl)c3)ccc2n1`: the T/C is 110 % of control under setting [10]; 98 % of control under setting [11]; 114 % of control and 115 % of control under setting [12]; 153 % of control under setting [4]; 156 % of control and 188 % of control under setting [1]; 111 % of control under setting [2]. Moreover, the T/C is 102 % of control and 110 % of control (endpoint: median survival time, dose: 6.25 mg/kg/injection, schedule: Q01DX009 (ip), vehicle: saline with Tween-80); 150 % of control and 153 % of control (endpoint: median survival time, dose: 25.0 mg/kg/injection, schedule: Q01DX009 (ip), vehicle: saline with Tween-80); 159 % of control (endpoint: median survival time, dose: 50.0 mg/kg/injection, schedule: Q01DX005 (ip), vehicle: saline with Tween-80); 175 % of control and 198 % of control (endpoint: median survival time, dose: 50.0 mg/kg/injection, schedule: Q01DX009 (ip), vehicle: saline with Tween-80); 202 % of control (endpoint: median survival time, dose: 83.33 mg/kg/injection, schedule: Q01DX005 (ip), vehicle: saline with Tween-80); 230 % of control (endpoint: median survival time, dose: 83.63 mg/kg/injection, schedule: Q01DX005 (ip), vehicle: saline with Tween-80). The T/C reads like this: (endpoint: median survival time, dose: 138.89 mg/kg/injection, schedule: Q01DX005 (ip), vehicle: saline with Tween-80) 179 % of control; (endpoint: median survival time, dose: 139.39 mg/kg/injection, schedule: Q01DX005 (ip), vehicle: saline with Tween-80) 151 % of control; (endpoint: median survival time, dose: 232.31 mg/kg/injection, schedule: Q01DX005 (ip), vehicle: saline with Tween-80) 117 % of control.
Take `Cc1ccc(N=NN(C)C)cc1`: the T/C by setting is: (endpoint: mean survival time, dose: 18.75 mg/kg/injection, schedule: Q01DX009 (ip), vehicle: Klucel (hydroxypropylcellulose) (HPC)) 118 % of control; (endpoint: mean survival time, dose: 75.0 mg/kg/injection, schedule: Q01DX009 (ip), vehicle: Klucel (hydroxypropylcellulose) (HPC)) 152 % of control.
Turning to `NCC1CC2C=CC1C2` (stereo not drawn), the T/C is 100 % of control under setting [8] and 93 % of control under setting [9].
As for `COc1cc(OC)c(NC(=O)ON2C(=O)c3ccccc3C2=O)cc1Cl`, the T/C is, setting by setting: (endpoint: mean survival time, dose: 0.19 mg/kg/injection, schedule: Q01DX009 (ip), vehicle: saline with Tween-80) 97 % of control; (endpoint: mean survival time, dose: 0.39 mg/kg/injection, schedule: Q01DX009 (ip), vehicle: saline with Tween-80) 94 % of control; (endpoint: mean survival time, dose: 0.78 mg/kg/injection, schedule: Q01DX009 (ip), vehicle: saline with Tween-80) 100 % of control; (endpoint: mean survival time, dose: 1.56 mg/kg/injection, schedule: Q01DX009 (ip), vehicle: saline with Tween-80) 97 % of control; under setting [10], 116 % of control and 96 % of control; under setting [12], 100 % of control. Further, the T/C by setting is: under setting [13], 103 % of control; under setting [4], 103 % of control; under setting [1], 101 % of control; under setting [2], 103 % of control.
In the case of `c1ccc([P+](c2ccccc2)(c2ccccc2)c2ccccc2)cc1`, the T/C is 108 % of control (endpoint: mean survival time, dose: 0.63 mg/kg/injection, schedule: Q01DX009 (ip), vehicle: saline); 111 % of control (endpoint: mean survival time, dose: 1.25 mg/kg/injection, schedule: Q01DX009 (ip), vehicle: saline); 117 % of control (endpoint: mean survival time, dose: 2.5 mg/kg/injection, schedule: Q01DX009 (ip), vehicle: saline); 122 % of control (endpoint: mean survival time, dose: 5.0 mg/kg/injection, schedule: Q01DX009 (ip), vehicle: saline).
In the case of `CCOC(=O)/C=C1\NC(=O)N(CCCN2C(=O)N/C(=C\C(=O)OCC)C2=O)C1=O`, the T/C under setting [11] was 95 % of control, the T/C under setting [12] is 98 % of control, the T/C under setting [13] is 95 % of control and the T/C under setting [1] was 92 % of control.
